Data set [1] in a line: Solubility. The data set is classed as physicochemical. The conditions noted are these: read-out: Solubility.
The nature of data set [2]: Plasma stability, human plasma. The data set is classed as in vitro ADME. To be noted: 37° C. The procedure:
Stabilities of derivatives at various pHs were studied at 25° and 37°. The plasma studies were conducted at 37° in rat and human plasma. Human plasma was obtained from Watkins Hospital and rat plasma was obtained from the Animal Care Unit of the University of Kansas. […] One hundred microliter samples were removed and was quenched with 250 uL. acetonitrile and centrifuged to precipitate the plasma proteins. The degradation kinetics were studied by HPLC plotting peak area vs. time. The t90 and t50 were calculated. Both chemical and plasma studies were followed by high performance liquid chromatography using a RP-8 column (15 cm) and a precolumn (5 cm). The detector was set at 227 nm. The mobile phase consisted of 0.02M acetate (pH 5): acetonitrile 50:50 or 35:65 and the flow rate ranged from 1-1.5 mL/min or the same solvents containing 0.001M tetrabutylammoniumydrogensulphate and a flow rate of 1 mL/min.

The nature of data set [3]: Plasma stability, rat plasma. The data set is classed as in vitro ADME. To be noted: rat plasma (20 μg/mL), 37° C. As for the experimental part:
(§1) Stabilities of derivatives at various pHs were studied at 25° and 37°. The plasma studies were conducted at 37° in rat and human plasma. Human plasma was obtained from Watkins Hospital and rat plasma was obtained from the Animal Care Unit of the University of Kansas. The derivative concentration used was around 20-25 μg/ml. A stock solution of the compound was prepared at 0.8-1.0 mg/mL and was added to plasma to give the desired concentration (20-25 μg/mL). One hundred microliter samples were removed and was quenched with 250 uL. acetonitrile and centrifuged to precipitate the plasma proteins. The degradation kinetics were studied by HPLC plotting peak area vs. time. The t90 and t50 were calculated. Both chemical and plasma studies were followed by high performance liquid chromatography using a RP-8 column (15 cm) and a precolumn (5 cm). The detector was set at 227 nm. The mobile phase consisted of 0.02M acetate (pH 5): acetonitrile 50:50 or 35:65 and the flow rate ranged from 1-1.5 mL/min or the same solvents containing 0.001M tetrabutylammoniumydrogensulphate and a flow rate of 1 mL/min.

Data set [4] in a line: Chemical stability in buffer or water. The data set is classed as physicochemical. As for the experimental part:
The compound was subjected to stability studies according to the following procedures.
as §1
The identity of this peak was further confirmed by the degradation studies of the new derivatives. Thus, 2'(DMG) taxol was incubated with water at 37° and the product was concentrated and purified by preparative TLC. The product after purification was analyzed by HPLC and spectroscopic methods.

Data set [5] concerns human mammary carcinoma MX-1 xenograft. Nature of the data set: Subrenal capsule human mammary carcinoma MX-1 xenograft in mice. To be noted: for % T/C: Q4D Days 1, 5, 9; for % T/C / # OF ANMLS ALIVE CALC/TOTAL / Average tumor WEIGHT CHANGE (DELTA) / Average tumor weight, FINAL: Day 11; for ANML BODY WT DIFF (test minus control) / TEST BODY WT CHG / # OF ANMLS ALIVE CALC/TOTAL / Average tumor WEIGHT CHANGE (DELTA) / Average tumor weight, FINAL: Q4D; for ANML BODY WT DIFF (test minus control) / TEST BODY WT CHG: Day 1 to 11. From the text: The procedures followed are those described at pages 23-24 of NIH Publication No. 84-2635, In Vivo Cancer Model (February 1984).
In the procedure, test groups of mice (6 mice per test group) and control groups of 12 mice per group are utilized. A tumor fragment (human mammary carcinoma MX-1 xenograft), is implanted under the membranous covering of the kidney of each mouse.
Day 0: Anesthetize animals. Record body weight (Weigh Day 1). Implant tumor, measure and record. Randomize animals after they recover from the anesthetic. Run bacterial cultures. Determine solubilities of test agent. Record deaths daily.
Day 1: Check cultures. Discard experiment if contaminated. Prepare test materials. Initiate test agent injections (in the nape of the neck) based on individual body weight. Treatment is Q4D on Days 1, 5, and 9. Prepare test agent fresh on each injection day and administer based on individual body weight for that day.
Days 5 and 9: Prepare test agent fresh on each injection day and administer based on individual body weight for that day.
Day 11: End and evaluate experiment. Record body weights (Weigh Day 2). Measure tumor in OMU's (Ocular Micrometer Unit--10 OMU's=1 mm) and record.
The parameter measured is mean tumor weight change (delta) based on length and width measurements in millimeters. Mean animal body weights are computed for Day 1 and Day 11, compute T/C for all test groups with>65% survivors on Day 11. An excessive body weight change difference (test minus control) may also be used in evaluating toxicity. The dimensions are measured and recorded in Ocular Micrometer Units (OMU). A computer is utilized for the following:
(1) Converts OMU's to millimeters (mm).
(2) Calculates tumor weights (mgs) from tumor dimensions (mm×mm) following the formula for the volume of a prolate ellipsoid: [formula] (3) Calculates the change (delta) in mean tumor weight for each group of mice:
Change in Mean Tumor Weight=Mean Tumor WeightFINAL -Mean Tumor WeightINITIAL.
(4) Calculates the change (delta) in mean tumor weight for test (T) and control (C) groups.
(5) Calculates T/C% for all test groups with>65% survivors on Final Evaluation Day: [formula]

Data set [6] has as its system microtubule assembly. The data set is described as follows: In vitro microtubule assembly kinetics. The data set is classed as biochemical. The conditions noted are these: rank order. The procedure: (A) In vitro Microtubule Assembly Kinetics Studies
The microtubule assembly study was conducted using both 2' and 7-derivatives according to the in vitro procedures disclosed, for example, in Mellado et al., Biochemical and Biophysical Research Communications, Vol. 124, No. 2 (1984), pp. 329-336; Magri et al., J. Org. Chem., 51, 797-802 (1986); and Parness et al., Biochemical and Biophysical Research Communications, Vol. 105, No. 3, pp. 1082-1091 (1982).

Data set [7] concerns B-16 melanoma cells. Nature of the data set: In vitro B16 melanoma cell proliferation. The data set is classed as cell-based. To be noted: rank order. As for the experimental part:
These studies were conducted according to standard procedures as described in Donoso and Himes, Cancer Biochem. Biophysics, vol. 7, (1984), p. 133.

The source of these data is patent US4960790A, “Derivatives of taxol, pharmaceutical compositions thereof and methods for the preparation thereof” (University of Kansas, priority 1989, dated 1990).

The structures appear in SMILES notation. Where a name gives a salt, the structure may show the parent alone.

For the compound `CC(=O)O[C@H]1C(=O)[C@]2(C)[C@@H](OC(=O)CN(C)C)C[C@H]3OC[C@@]3(OC(C)=O)[C@H]2[C@H](OC(=O)c2ccccc2)[C@]2(O)C[C@H](OC(=O)[C@H](O)[C@@H](NC(=O)c3ccccc3)c3ccccc3)C(C)=C1C2(C)C` [Compound 8, Methanesulphonic acid salt of 7-(dimethylglycyl)taxol], the solubility in data set [1] is over 2000 µg/mL. Also, the half-life was 24.4 h in data set [2] (human plasma (10 μg/mL)); 27.7 h in data set [2] (human plasma (20 μg/mL)); 17.3 h in data set [3]; 142 days in data set [4] (0.02 M Acetate, pH 3.5, 25° C.); 1.41 days in data set [4] (0.02 M Phosphate, pH 7.4, 25° C.); 71.6 days in data set [4] (0.02 M acetate, pH 4.5, 25° C.).

For the compound `CC(=O)O[C@H]1C(=O)[C@@]2(C)[C@H]([C@H](OC(=O)c3ccccc3)[C@]3(O)C[C@H](OC(=O)[C@H](OC(=O)CN(C)C)[C@@H](NC(=O)c4ccccc4)c4ccccc4)C(C)=C1C3(C)C)[C@]1(OC(C)=O)CO[C@@H]1C[C@@H]2O` [Compound 1, 2'-(N,N-dimethylglycyl)taxol], in data set [5] (Table 1, 5.90 mg/kg), the “% T/C” value is on record as -78%, the “ANML BODY WT DIFF (test minus control)” value is “-.5”, the “TEST BODY WT CHG” value is -2.2 and the “# OF ANMLS ALIVE CALC/TOTAL” value was 6/6. In data set [5] (Table 1, 5.90 mg/kg), the “Average tumor WEIGHT CHANGE (DELTA)” value was “-.48 MGS” and the “Average tumor weight, FINAL” value is given as “.13 MGS”. In data set [5] (Table 1, 8.90 mg/kg), the “% T/C” value is given as -53%, the “ANML BODY WT DIFF (test minus control)” value is recorded as “.8”, the “TEST BODY WT CHG” value is given as “-.9” and the “# OF ANMLS ALIVE CALC/TOTAL” value is given as 5/6. Besides, in data set [5] (Table 1, 8.90 mg/kg), the “Average tumor WEIGHT CHANGE (DELTA)” value is on record as “-.41 MGS” and the “Average tumor weight, FINAL” value is “.36 MGS”. In addition, in data set [5] (Table 1, 13.30 mg/kg), the “ANML BODY WT DIFF (test minus control)” value is “-.6”, the “TEST BODY WT CHG” value is reported as -2.3, the “# OF ANMLS ALIVE CALC/TOTAL” value is given as 4/6 and the “Average tumor WEIGHT CHANGE (DELTA)” value is recorded as “-.64 MGS”. The “Average tumor weight, FINAL” value in data set [5] (Table 1, 13.30 mg/kg) is reported as “.00 MGS”. In data set [5] (Table 1, 20.00 mg/kg), the “ANML BODY WT DIFF (test minus control)” value was “-.5”, the “TEST BODY WT CHG” value is -2.2, the “# OF ANMLS ALIVE CALC/TOTAL” value is 4/6 and the “Average tumor WEIGHT CHANGE (DELTA)” value is given as “-.56 MGS”. Besides, the “Average tumor weight, FINAL” value in data set [5] (Table 1, 20.00 mg/kg) is “.00 MGS”. Further, in data set [5] (Table 1, 30.00 mg/kg), the “% T/C” value is recorded as “TOX”; the “TEST BODY WT CHG” value is on record as -3.8; the “# OF ANMLS ALIVE CALC/TOTAL” value is 1/6; the “Average tumor weight, FINAL” value is “.00 MGS”. Besides, the “Ability to assemble microtubules (order)” value in data set [6] is recorded as “taxol >7-(N,N-dimethylglycyl)taxol(11)>2'(N,N-diethylaminopropionyl)taxol(8)>2'(N,N-dimethylglycyl)taxol(2)”. The “Order of effectiveness in B-16 melanoma cell proliferation study” value in data set [7] is “taxol>2'-(N,N-dimethylglycyl)taxol>2'-(N,N-diethylaminopropionyl)taxol>7-(N,N-dimethylglycyl)taxol”. Moreover, in data set [4] (incubated with water at 37°), the “Identity of degradation product” value is “the product is taxol”.

In the case of `CC(=O)O[C@H]1C(=O)[C@]2(C)[C@@H](OC(=O)CN(C)C)C[C@H]3OC[C@@]3(OC(C)=O)[C@H]2[C@H](OC(=O)c2ccccc2)[C@]2(O)C[C@H](OC(=O)[C@H](O)[C@@H](NC(=O)c3ccccc3)c3ccccc3)C(C)=C1C2(C)C` [Compound 7, 7-(N,N-Dimethylglycyl)Taxol], in data set [5] (Table 2, 4.13 mg/kg), the “% T/C” value is 34%, the “ANML BODY WT DIFF (test minus control)” value is recorded as “-.5”, the “TEST BODY WT CHG” value is reported as -4.5 and the “# OF ANMLS ALIVE CALC/TOTAL” value is given as 4/5. In data set [5] (Table 2, 4.13 mg/kg), the “Average tumor WEIGHT CHANGE (DELTA)” value is on record as 4.92 MGS and the “Average tumor weight, FINAL” value was found to be 5.66 MGS. Further, in data set [5] (Table 2, 8.25 mg/kg), the “% T/C” value stood at 23%, the “ANML BODY WT DIFF (test minus control)” value is “.1”, the “TEST BODY WT CHG” value is recorded as -3.9 and the “# OF ANMLS ALIVE CALC/TOTAL” value was 4/4. In data set [5] (Table 2, 8.25 mg/kg), the “Average tumor WEIGHT CHANGE (DELTA)” value stood at 3.38 MGS and the “Average tumor weight, FINAL” value is listed as 4.19 MGS. In data set [5] (Table 2, 16.50 mg/kg), the “% T/C” value is -93%, the “ANML BODY WT DIFF (test minus control)” value is reported as -1.7, the “TEST BODY WT CHG” value is reported as -5.7 and the “# OF ANMLS ALIVE CALC/TOTAL” value was 3/4. Further, in data set [5] (Table 2, 16.50 mg/kg), the “Average tumor WEIGHT CHANGE (DELTA)” value is recorded as “-.55 MGS” and the “Average tumor weight, FINAL” value was “.04 MGS”. In data set [5] (Table 2, 33.00 mg/kg), the “ANML BODY WT DIFF (test minus control)” value is 1.3, the “TEST BODY WT CHG” value is -2.7, the “# OF ANMLS ALIVE CALC/TOTAL” value was 4/5 and the “Average tumor WEIGHT CHANGE (DELTA)” value is reported as “-.74 MGS”. Also, in data set [5] (Table 2, 33.00 mg/kg), the “Average tumor weight, FINAL” value is “.00 MGS”. Also, the “Ability to assemble microtubules (order)” value in data set [6] was “taxol >7-(N,N-dimethylglycyl)taxol(11)>2'(N,N-diethylaminopropionyl)taxol(8)>2'(N,N-dimethylglycyl)taxol(2)”. In addition, the “Order of effectiveness in B-16 melanoma cell proliferation study” value in data set [7] is “taxol>2'-(N,N-dimethylglycyl)taxol>2'-(N,N-diethylaminopropionyl)taxol>7-(N,N-dimethylglycyl)taxol”.
